Usually logD stands for lipophilicity at a set pH, counting ionised and neutral species. Read a low logD as lower lipophilicity.

The data set can be described thus: method code SF-AS, from PMID: 6637502. As to conditions: pH 5.0.
The compound `O=c1c2c(nc3n1CCCCC3)CCCCC2` registered a logD of 2.18.
Take `Cc1cnc2n(c1=O)C(C)CCC2` (configuration not stated): the logD came out at 0.82.
To `Cc1ccc2nc3c(c(=O)n2c1)CCC3` belongs 1.61; to `O=c1c2c(nc3n1CCC3)CCC2`, 0.22.
In turn, `Cc1ccc2nccc(=O)n2c1` returned a logD of 0.61.
Consider `CC1CCCn2c1nc1c(c2=O)CCCC1` (configuration not stated), for which the logD came to 1.76.
To `CC1CCn2c(nc3c(c2=O)CCCC3)C1` (configuration not stated) belongs 1.67; to `Cc1nc2n(c(=O)c1C)CCCC2`, 0.6; to `O=c1c2ccccc2nc2n1CCCCC2`, 1.98.
For the compound `Cc1cccc2nc3c(c(=O)n12)CCCC3`, the logD is 1.91.
Regarding `Cc1ccc2nc3c(c(=O)n2c1)CCCC3`, the logD was 2.07.
In turn, `CC1CCc2nc3c(c(=O)n2C1)CCCC3` (configuration not stated) returned a logD of 1.7.
Next, `Cc1ccn2c(=O)c3c(nc2c1)CCC3`: 1.65; `Cc1cccn2c(=O)c3c(nc12)CCCC3`: 2.44; `O=c1c2c(nc3n1CCCCC3)CCC2`: 1.25.
`Cc1cccn2c(=O)ccnc12` yielded a logD of 0.79.
In turn, `Cc1cccc2nc3c(c(=O)n12)CCC3` showed a pH-dependent lipophilicity (logD) of 1.77.
In turn, `Cc1cnc2n(c1=O)CCCC2` came in with a logD of 0.4.
The compound `O=c1c2c(nc3ccccn13)CCCC2` showed a logD of 1.63.
For `Cc1ccn2c(=O)c3c(nc2c1)CCCC3`, the logD was 1.86.
Compound `CC1CCCc2nc3c(c(=O)n21)CCCC3` (configuration not stated) displayed a logD of 1.67.
Turning to `Cc1ccn2c(=O)ccnc2c1`, the logD turned out to be 0.56.

The values above are taken from the SangsterLogP compilation.
